# Measured values reported in patent publication US20250090510A1, “eIF4G1-eIF1 INHIBITORS AND USE THEREOF” (YEDA RESEARCH AND DEVELOPMENT CO. LTD., priority 2022, published 2025).
# Target: T1, eIF4E-eIF4G1 complex (Homo sapiens, UniProt Q04637)
# T1 construct: co-immunoprecipitation of endogenous eIF4G1 in HEK293T cells expressing HA-eIF1 or HA-eIF4E was performed; endogenous in cells; host or cells: HEK293T (eIF4G1 endogenous; HA-eIF4E transfected)
# Assay: Co-immunoprecipitation of endogenous eIF4G1 with HA-eIF4E
# Format: cell-based
# Settings: HEK293T; i14G1-10 20 μM, i14G1-12 10 μM; 4 h
# Experimental: FIGS. 2A-C: The effect of i14G1-10 and i14G1-12 on eIF1-eIF4G1 and eIF4E-eIF4G1 complexes. (2A-B) HA-eIF1 and HA-eIF4E were each transfected into HEK293T cells and 48 h after transfection cells were treated with DMSO or i14G1-10 (2A) or i14G1-12 (2B) for 4 h, followed by immunoprecipitation of HA-eIF1 or HA-eIF4E using anti-HA-agarose beads. Western blot was run to check co-immunoprecipitation of endogenous eIF4G1 with HA-eIF1 or HA-eIF4E. The graphs represent the co-immunoprecipitation of eIF4G1 with HA-eIF1 (right) or HA-eIF4E (left). Co—IP data shown as mean±SEM of 4-7 independent experiments. The asterisks denote statistically significant difference compared to DMSO, according to Student's t-tests (one-tailed, paired). *p<0.05. (2C) HEK293T cells were treated with DMSO, i14G1-10, or i14G1-12 for 4 h, followed by cell lysis. Respective cell lysates were incubated with cap analog (γ-Aminohexyl-m7GTP) beads for 2 h to precipitate bound eIF4E. Western blot was performed to check co-precipitation of eIF4G1 along with eIF4E on the cap-analog beads. The graph represents the binding fraction of eIF4G1 and eIF4E to the cap-analog beads (mean±SEM) with DMSO (black), i14G1-10 (blue), and i14G1-12 (red), n=6. The asterisks denote statistically significant difference compared to DMSO, according to Student's t-tests (one-tailed, paired). *p<0.05; **p<0.01.
# Co-immunoprecipitation. HEK293T cells were transfected with 5 μg of HA-eIF1 or HA-eIF4E plasmids along with 10 ng GFP plasmid to check for transfection efficiency using Jetprime reagent as per manufacturer's protocol. After 48 h, HA-eIF1 and HA-eIF4E expressing HEK293T cells were incubated with DMSO, i14G1-10 (20 μM), and […] (10 μM). 4 h later, cells were lysed using IP buffer (20 mM Tris pH8, 125 mM NaCl, 10% glycerol, 50 mM NaF, 1 mM […], 0.5% NP-40, and 0.2 mM EDTA) supplemented with fresh protease inhibitor cocktail (1:100) and PMSF 200 μM (1:100). Protein extract was taken for immunoprecipitation using either monoclonal anti-HA-agarose antibody (Sigma) or control IgG antibody in IP buffer, at 4° C. for 2 hours. […]
# T1 sequence (Q04637 whole entry): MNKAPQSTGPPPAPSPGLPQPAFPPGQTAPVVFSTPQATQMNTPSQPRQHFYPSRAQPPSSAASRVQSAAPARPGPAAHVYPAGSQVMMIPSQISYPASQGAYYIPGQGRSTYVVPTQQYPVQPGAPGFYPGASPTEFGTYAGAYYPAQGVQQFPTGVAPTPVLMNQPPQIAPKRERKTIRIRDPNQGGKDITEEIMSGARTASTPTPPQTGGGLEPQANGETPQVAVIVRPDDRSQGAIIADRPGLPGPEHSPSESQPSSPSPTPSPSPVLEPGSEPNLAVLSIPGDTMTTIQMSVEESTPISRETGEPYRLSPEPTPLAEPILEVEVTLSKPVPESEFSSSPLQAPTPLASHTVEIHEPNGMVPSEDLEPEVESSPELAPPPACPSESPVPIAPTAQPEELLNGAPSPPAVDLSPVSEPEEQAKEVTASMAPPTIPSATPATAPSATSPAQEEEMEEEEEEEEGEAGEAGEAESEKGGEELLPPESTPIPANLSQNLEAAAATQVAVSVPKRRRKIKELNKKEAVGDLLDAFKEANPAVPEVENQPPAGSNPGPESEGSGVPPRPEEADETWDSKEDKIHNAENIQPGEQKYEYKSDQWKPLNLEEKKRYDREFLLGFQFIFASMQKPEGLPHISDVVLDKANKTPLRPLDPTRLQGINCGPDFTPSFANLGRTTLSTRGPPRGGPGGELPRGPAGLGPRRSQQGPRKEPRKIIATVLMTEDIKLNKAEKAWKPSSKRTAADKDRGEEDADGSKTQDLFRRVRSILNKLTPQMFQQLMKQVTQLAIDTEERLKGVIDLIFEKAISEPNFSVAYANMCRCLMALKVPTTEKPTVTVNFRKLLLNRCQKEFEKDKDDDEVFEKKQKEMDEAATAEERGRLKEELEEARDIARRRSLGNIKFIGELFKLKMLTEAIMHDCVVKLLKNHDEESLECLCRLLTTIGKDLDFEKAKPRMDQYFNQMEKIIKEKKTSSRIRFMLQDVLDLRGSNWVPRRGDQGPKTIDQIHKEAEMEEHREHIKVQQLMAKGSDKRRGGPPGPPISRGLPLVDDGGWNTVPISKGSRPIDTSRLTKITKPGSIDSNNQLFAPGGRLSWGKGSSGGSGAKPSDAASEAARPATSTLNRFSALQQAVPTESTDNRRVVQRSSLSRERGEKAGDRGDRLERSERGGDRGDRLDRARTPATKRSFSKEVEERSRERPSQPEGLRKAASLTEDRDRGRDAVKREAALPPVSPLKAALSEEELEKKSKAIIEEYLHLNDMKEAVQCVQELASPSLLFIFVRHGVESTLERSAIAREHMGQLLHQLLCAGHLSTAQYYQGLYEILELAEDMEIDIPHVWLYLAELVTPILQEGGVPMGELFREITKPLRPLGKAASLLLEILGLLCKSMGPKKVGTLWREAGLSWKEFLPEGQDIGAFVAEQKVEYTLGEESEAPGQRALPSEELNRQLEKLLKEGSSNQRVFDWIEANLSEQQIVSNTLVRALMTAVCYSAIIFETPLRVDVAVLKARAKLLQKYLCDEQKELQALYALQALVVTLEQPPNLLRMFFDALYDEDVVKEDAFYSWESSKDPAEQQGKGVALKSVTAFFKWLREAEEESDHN
# T1 sequence (P06730 whole entry partner): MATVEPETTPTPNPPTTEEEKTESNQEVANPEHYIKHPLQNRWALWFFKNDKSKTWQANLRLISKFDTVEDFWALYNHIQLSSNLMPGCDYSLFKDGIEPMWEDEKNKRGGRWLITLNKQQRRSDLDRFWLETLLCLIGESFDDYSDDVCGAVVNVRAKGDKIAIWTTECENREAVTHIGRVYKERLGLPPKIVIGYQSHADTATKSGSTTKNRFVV
row,Compound,enhancement of eIF4G1 binding to HA-eIF4E
1,O=C(/C=C/Sc1ccc(C(F)(F)F)cn1)c1ccccc1 [i14G1-10],dramatic enhancement
2,Cn1ccnc1S/C(=C/C=C(C#N)C#N)c1ccc(Cl)cc1 [i14G1-12],not significant
